Test results taken from the supplement of paper PMC13380429.

Assays:
HepG2 [1] = experiment: drug sensitivity score (DSS) for viability; higher = more toxic; extreme values may be limits of the assay; conditions: 72 h
Caco-2 [2] = experiment: as above; conditions: 72 h
Vero E6 [3] = experiment: as above; conditions: 72 h
U2OS [4] = experiment: as above; conditions: 72 h
Calu-3 [5] = experiment: as above; conditions: 72 h
Caco-2 [6] = experiment: relative viability EC50 (midpoint between 100% and the lowest measured viability); higher = less toxic; conditions: 72 h
Vero E6 [7] = experiment: as above; conditions: 72 h
U2OS [8] = experiment: as above; conditions: 72 h
Calu-3 [9] = experiment: as above; conditions: 72 h
HepG2 [10] = experiment: cell viability relative to DMSO; higher = less toxic; conditions: 72 h
Caco-2 [11] = experiment: as above; conditions: 72 h
Vero E6 [12] = experiment: as above; conditions: 72 h
U2OS [13] = experiment: as above; conditions: 72 h
Calu-3 [14] = experiment: as above; conditions: 72 h
[15] = tested on: A549-ACE2 infected with SARS-CoV-2; experiment: cell count relative to DMSO; higher = less toxic; conditions: 24 h
[16] = tested on: A549-ACE2 infected with SARS-CoV-2; experiment: SARS-CoV-2 infection rate relative to DMSO; higher = more infection; conditions: 24 h
[17] = tested on: A549-ACE2 infected with SARS-CoV-2; experiment: morphology score (similarity to uninfected cells); higher = more like uninfected cells; conditions: 24 h
A549-ACE2 [18] = experiment: drug-induced phospholipidosis relative to tamoxifen; higher = more phospholipidosis
HepG2 [19] = experiment: relative viability EC50 (midpoint between 100% and the lowest measured viability); higher = less toxic; conditions: 72 h
A549-ACE2 [20] = experiment: phospholipidosis EC50; higher = less potent phospholipidosis inducer

COc1cc2c(NC3CCN(C4CCCCC4)CC3)nc(N3CCCN(C(C)C)CC3)nc2cc1OCCCN1CCCCC1 [UNC0646]
Conditions | drug sensitivity score | relative viability EC50 [µM]
Caco-2 [2] | 0 | –
Caco-2 [6] | – | > 10
Calu-3 [5] | 0.6 | –
Calu-3 [9] | – | > 10
HepG2 [1] | 1.5 | –
U2OS [4] | 0 | –
U2OS [8] | – | > 10
Vero E6 [3] | 0 | –
Vero E6 [7] | – | > 10

Conditions | SARS-CoV-2 infection rate, [16] [%] | cell count, [15] [%] | cell viability, Caco-2 [11] [%] | cell viability, Calu-3 [14] [%] | cell viability, HepG2 [10] [%] | cell viability, U2OS [13] [%] | cell viability, Vero E6 [12] [%] | morphology score, [17]
1 nM | – | – | 96 | 96.5 | 88.2 | 103 | 92.2 | –
10 nM | – | – | 97.6 | 92.3 | 96.7 | 102 | 97.6 | –
100 nM | – | – | 100 | 93.6 | 90.9 | 107 | 94.3 | –
0.3 µM | 92 | 106 | – | – | – | – | – | 0.28
1000 nM | – | – | 97.6 | 90.4 | 102 | 97 | 92 | –
3 µM | 68 | 110 | – | – | – | – | – | 0.67
10000 nM | – | – | 93.9 | 83.9 | 65.3 | 94.7 | 100 | –
10 µM | 26 | 112 | – | – | – | – | – | 0.92
30 µM | 47 | 25 | – | – | – | – | – | -0.11

drug-induced phospholipidosis [%], A549-ACE2 [18]
Conditions | 0.3 µM | 0.833333 µM | 3.33333 µM | 6.66667 µM | 10 µM | 30 µM
24 h | -0.25 | 5.64 | 3.14 | 8.62 | 22 | 44.4
48 h | 1.05 | 5.57 | 5.07 | 9.69 | 24.5 | 45.2
72 h | 0.206 | 4.62 | 7.33 | 11.5 | 28 | –

CCCC[C@@H](C=O)NC(=O)[C@H](CC(C)C)NC(=O)OCc1ccccc1 [calpeptin]
Conditions | drug sensitivity score | relative viability EC50
Caco-2 [2] | 0 | –
Caco-2 [6] | – | > 10 µM
HepG2 [1] | 0 | –
HepG2 [19] | – | > 10000 nM
U2OS [4] | 0 | –
U2OS [8] | – | > 10 µM
Vero E6 [3] | 0 | –
Vero E6 [7] | – | > 10 µM

Conditions | SARS-CoV-2 infection rate, [16] [%] | cell count, [15] [%] | cell viability, Caco-2 [11] [%] | cell viability, HepG2 [10] [%] | cell viability, U2OS [13] [%] | cell viability, Vero E6 [12] [%] | morphology score, [17]
1 nM | – | – | 96.8 | 99.8 | 104 | 97.5 | –
10 nM | – | – | 97 | 95.1 | 98.8 | 99.6 | –
100 nM | – | – | 100 | 98.2 | 103 | 102 | –
0.3 µM | 56 | 114 | – | – | – | – | 0.69
1000 nM | – | – | 94.5 | 98.3 | 95.8 | 98 | –
3 µM | 29 | 120 | – | – | – | – | 0.91
10000 nM | – | – | 97.7 | 92.2 | 96.4 | 92.1 | –
10 µM | 13 | 123 | – | – | – | – | 0.9
30 µM | 8 | 118 | – | – | – | – | 0.77

drug-induced phospholipidosis [%], A549-ACE2 [18]
Conditions | 0.3 µM | 0.833333 µM | 3.33333 µM | 6.66667 µM | 10 µM | 30 µM
24 h | 5.73 | 6.24 | 10.6 | 21.3 | 26.2 | 64.5
48 h | 3.11 | 2.48 | 7.49 | 16.9 | 26.6 | 77.2
72 h | 4.92 | 2.16 | 4.48 | 13.5 | 24.6 | 87.8

N=C(NCCCCCCNC(=N)NC(=N)Nc1ccc(Cl)cc1)NC(=N)Nc1ccc(Cl)cc1 [chlorhexidine]
Conditions | drug sensitivity score | relative viability EC50
Caco-2 [2] | 4.6 | –
Caco-2 [6] | – | 3.19 µM
HepG2 [1] | 6.5 | –
HepG2 [19] | – | 2320 nM
U2OS [4] | 3.7 | –
U2OS [8] | – | 3.19 µM
Vero E6 [3] | 3 | –

Conditions | SARS-CoV-2 infection rate [%] | cell count [%] | cell viability [%] | morphology score | phospholipidosis EC50 [µM]
A549-ACE2 [20], 24 h | – | – | – | – | 9.72
A549-ACE2 [20], 48 h | – | – | – | – | 7.36
Caco-2 [11], 1 nM | – | – | 99.3 | – | –
Caco-2 [11], 10 nM | – | – | 90 | – | –
Caco-2 [11], 100 nM | – | – | 98.1 | – | –
Caco-2 [11], 1000 nM | – | – | 100 | – | –
Caco-2 [11], 10000 nM | – | – | 16.4 | – | –
HepG2 [10], 1 nM | – | – | 101 | – | –
HepG2 [10], 10 nM | – | – | 103 | – | –
HepG2 [10], 100 nM | – | – | 87 | – | –
HepG2 [10], 1000 nM | – | – | 90.9 | – | –
HepG2 [10], 10000 nM | – | – | 10.1 | – | –
U2OS [13], 1 nM | – | – | 99.9 | – | –
U2OS [13], 10 nM | – | – | 101 | – | –
U2OS [13], 100 nM | – | – | 95.9 | – | –
U2OS [13], 1000 nM | – | – | 100 | – | –
U2OS [13], 10000 nM | – | – | 32.2 | – | –
Vero E6 [12], 1 nM | – | – | 96.5 | – | –
Vero E6 [12], 10 nM | – | – | 99 | – | –
Vero E6 [12], 100 nM | – | – | 97.9 | – | –
Vero E6 [12], 1000 nM | – | – | 95.2 | – | –
Vero E6 [12], 10000 nM | – | – | 56.1 | – | –
[15], 0.1 µM | – | 103 | – | – | –
[15], 0.3 µM | – | 99 | – | – | –
[15], 1 µM | – | 107 | – | – | –
[15], 3 µM | – | 106 | – | – | –
[16], 0.1 µM | 95 | – | – | – | –
[16], 0.3 µM | 90 | – | – | – | –
[16], 1 µM | 91 | – | – | – | –
[16], 3 µM | 93 | – | – | – | –
[17], 0.1 µM | – | – | – | -0.01 | –
[17], 0.3 µM | – | – | – | 0.17 | –
[17], 1 µM | – | – | – | 0.17 | –
[17], 3 µM | – | – | – | -0.05 | –

drug-induced phospholipidosis [%], A549-ACE2 [18]
Conditions | 0.3 µM | 0.833333 µM | 3.33333 µM | 6.66667 µM | 10 µM | 30 µM
24 h | -0.01 | -1.75 | 7.04 | 31.6 | 58.6 | 105
48 h | 3.12 | 2.84 | 15.7 | 40.3 | 57.2 | –
72 h | 3.95 | 2.67 | 18.9 | 39.3 | 61.2 | –

CN(NC(=O)CC(=O)NN(C)C(=S)c1ccccc1)C(=S)c1ccccc1 [elesclomol]
Conditions | drug sensitivity score | relative viability EC50 [µM]
Caco-2 [2] | 32.2 | –
Caco-2 [6] | – | 0.0174
Calu-3 [5] | 0 | –
Calu-3 [9] | – | > 10
HepG2 [1] | 9.7 | –
U2OS [4] | 21.4 | –
U2OS [8] | – | 0.1
Vero E6 [3] | 8.7 | –
Vero E6 [7] | – | 0.637

Conditions | SARS-CoV-2 infection rate, [16] [%] | cell count, [15] [%] | cell viability, Caco-2 [11] [%] | cell viability, Calu-3 [14] [%] | cell viability, HepG2 [10] [%] | cell viability, U2OS [13] [%] | cell viability, Vero E6 [12] [%] | morphology score, [17]
1 nM | – | – | 93.9 | 107 | 93.4 | 89.6 | 91.5 | –
10 nM | – | – | 74.4 | 83.6 | 99.4 | 89.5 | 96.7 | –
100 nM | – | – | 7 | 68.7 | 69.2 | 56.9 | 69.1 | –
0.3 µM | 93 | 93 | – | – | – | – | – | 0.17
1000 nM | – | – | 9.7 | 29.6 | 66.7 | 7.8 | 41.7 | –
3 µM | 68 | 104 | – | – | – | – | – | 0.63
10000 nM | – | – | 4.1 | 99.4 | 82.1 | 90.6 | 86 | –
10 µM | 99 | 107 | – | – | – | – | – | 0.52
30 µM | 86 | 100 | – | – | – | – | – | 0.39

A549-ACE2 [18]
Conditions | drug-induced phospholipidosis [%]
0.3 µM, 24 h | 12.3
0.833333 µM, 24 h | 9.68
3.33333 µM, 24 h | 7.09
6.66667 µM, 24 h | 7.28
10 µM, 24 h | 9.51
30 µM, 24 h | 2.54
30 µM, 48 h | 6.18
30 µM, 72 h | 10
